“Also recorded” adds a separate entry of the source.
Experiments:
[1] = target: T1, isopentenyl phosphate kinase (IPK) (Thermoplasma acidophilum, UniProt Q9HLX1); experiment: NADH-coupled kinetic assay of IPK; details: IPK with monophosphorylated substrate, ± SD of the mean
T1 sequence (Q9HLX1 1-245): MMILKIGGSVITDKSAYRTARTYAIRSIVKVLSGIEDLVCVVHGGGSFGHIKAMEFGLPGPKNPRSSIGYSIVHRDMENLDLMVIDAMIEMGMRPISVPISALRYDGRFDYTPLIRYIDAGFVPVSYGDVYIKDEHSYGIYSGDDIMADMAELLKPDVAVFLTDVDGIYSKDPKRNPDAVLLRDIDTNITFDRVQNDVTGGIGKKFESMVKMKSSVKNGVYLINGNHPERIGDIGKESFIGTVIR
Description: The data was fitted to the Michaelis-Menten equation using SigmaPlot, and the kinetic parameters (kcat, Km, kcat/Km) extracted.
NADH-Coupled Kinetic Assays. NADH coupled assays were performed with purified enzymes. Reaction progress was monitored by absorbance at 340 nm at 30° C. in a 96-well plate using a Biotek Synergy 4 plate reader (Winooski, Vt.). 200 μL enzymatic mixtures contained 50 mM Tris (pH 8.0), 25 mM KCl, 2.5 mM MgCl2, 0.05 mM DTT, 1 mM ATP, 320 μM NADH, 400 μM phosphoenolpyruvate, 0.5 U pyruvate kinase, 0.7 U lactate dehydrogenase, and various amounts of substrate. Conditions were verified by doubling enzyme and verifying the initial rate was doubled as well.
Kinetics of IPK were done with purified enzyme using 0.09 μg of enzyme per well. Serial dilution was used to generate specific concentrations of substrates (3125, 1562, 781, 625, 391, 195, 98, 24, 12, and 3 μM). Each condition was performed in triplicate. Nonlinear regression was fitted using SigmaPlot (Systat Software Inc., San Jose, Calif., USA).

IspA S81F = IspA S81F (Escherichia coli, UniProt P22939, S80F); assay type: biochemical; details: DMAPP as starter unit
Chain of IspA S81F (P22939 whole entry S80F): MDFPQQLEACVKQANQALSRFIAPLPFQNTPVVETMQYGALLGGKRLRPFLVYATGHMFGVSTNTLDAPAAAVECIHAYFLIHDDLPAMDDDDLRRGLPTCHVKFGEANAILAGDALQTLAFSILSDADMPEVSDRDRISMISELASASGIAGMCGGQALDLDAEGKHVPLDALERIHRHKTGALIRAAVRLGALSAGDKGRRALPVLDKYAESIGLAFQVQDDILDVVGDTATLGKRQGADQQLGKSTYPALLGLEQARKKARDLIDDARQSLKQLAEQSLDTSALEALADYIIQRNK

[2] = target: IspA, a farnesyl diphosphate synthase (FPPase) (Escherichia coli, UniProt P22939); details: wild-type IspA
Chain of IspA, a farnesyl diphosphate synthase (FPPase) (P22939 whole entry): as the sequence (P22939 whole entry S80F) above, with F80S counted along it

IspA Y80D = IspA Y80D (Escherichia coli, UniProt P22939, Y79D); assay type: biochemical; details: DMAPP as starter unit
Chain of IspA Y80D (P22939 whole entry Y79D): as the sequence (P22939 whole entry S80F) above, with Y79D, F80S counted along it

Question: `CCC/C=C/COP(=O)(O)O` [Substrate 29] was tested. Which kcat [1] did it give?
Answer: Its kcat is 43.0 ± 17.8 s⁻¹.

Question: What about the Km ([1]; 1 mM ATP, 30° C.) of the same compound?
Answer: Its Km is 6.83 ± 3.77 mM.

Question: What about the “use as extender unit in place of IPP (conversion by LC-MS), words” value (IspA S81F) of the same compound?
Answer: The value was “most efficient analogues”.

Question: And the “use as extender unit in place of IPP (GPP analogue by LC-MS), words” value ([2]; DMAPP as starter unit)?
Answer: Its value is “accepted by IspA; also recorded: most efficient analogues”.

Question: And the “use as extender unit in place of IPP (FPP analogue by LC-MS), words” value ([2]; GPP as starter unit)?
Answer: Its value is “almost as good as that with IPP; also recorded: accepted by IspA”.

Question: And the “use as extender unit in place of IPP (conversion by LC-MS), words” value (IspA Y80D)?
Answer: The value was “most efficient analogues”.

Reference: US20220162188A1, “ISOPRENOIDS AND METHODS OF MAKING THEREOF” (NORTH CAROLINA STATE UNIVERSITY, priority 2019, published 2022)
